Measured values taken from patent publication US10385005B2, “Compositions and methods for glucose transport inhibition” (OHIO UNIVERSITY, priority 2010, dated 2019).
Values joined by “and” are separate entries in the source; they are usually repeats but may differ in a detail not shown here. Equal entries are not always repeated. Marks after values point to notes of the source that are not given here.

What was measured:
H1299 cells = experiment: Standard glucose uptake assay, H1299; type: cell-based, human; conditions: for Glucose transport inhibition (%) / level of glucose transport inhibition (in words): H1299; for % inhibition of basal glucose transport: Table 3, 30 μM in H1299 cells
Protocol: (§1) Briefly, H1299 cancer cells were treated with or without the compounds (30 μM) in triplicates for 10 min before the glucose uptake assay. Cellular glucose uptake was measured by incubating cells in the glucose-free KRP buffer with […] [^3H]2-deoxyglucose (specific activity, 40 Ci/mmol) for 30 min in the absence or presence of compounds. After the cells were washed with ice-cold PBS and lysed by 0.2 N NaOH, the cell lysates were transferred to scintillation counting vials and the radioactivity in the cell lysates was quantified by liquid scintillation counting. Cell growth measurements were performed using an MTT assay in hexads in a 96-well tissue culture plate with 5,000 cells plated in each well. The cells were incubated in presence or absence of the compounds (30 μM) for 48 h. After incubation, cell viabilities were assayed using a 96-well SPECTRAMAX™ absorbance/fluorescence plate reader (Molecular Devices).
Cancer cells are treated with or without the compounds for 10 min before the glucose uptake assay. Cellular glucose uptake will be measured by incubating cells in glucose-free RPMI 1640 with […] [^3H]2-deoxyglucose (specific activity, 40 Ci/mmol) for 30 min in the absence and presence of compounds. After the cells are washed with ice-cold PBS and lysed, the cell lysates will be transferred to scintillation counting vials and the radioactivity in the cell lysates is quantified by liquid scintillation counting.

H1299 lung cancer cells = experiment: MTT cell growth / viability assay, H1299; type: cell-based, human
Protocol: as §1
MTT assays are performed by the following well-established method. In a 96 well tissue culture plate 10,000 cells are plated in each well. The cells are incubated in presence or absence of the compounds for 18 h. 3-(4,5-Dimethylthiazol-2-yl)-2,5-diphenyltetrazolium bromide (MTT) is dissolved in PBS (10 mg/ml) and filter sterilized. Three hours before the end of the incubation 20 μL of MTT solution is added to each well containing cells in a 96-well plate. The plate is incubated in an incubator at 37° C. for 3 h. Media is aspirated gently and 200 μL of DMSO is added to each well to dissolve formazan crystals. The absorbance is measured at 550 nm for cell viability.

[1] = HPLC analysis of compound stability in human serum; type: in vitro ADME; conditions: for Compound concentration (%) after incubation with serum: human serum, 37 C
Protocol: A total of 2.5 ml of compound solution was added to 22.5 ml of human serum and the mixture was incubated at 37 C for various times. The final concentration of the compound in serum was 6.8 mM. After incubation, […] of acetonitrile was added to the mixture, centrifuged to remove proteins before HPLC analysis. The relative concentration of samples at 0 h (in serum but without incubation) was arbitrarily assigned a value of 100% and all other samples were compared to the 0 h samples.

[2] = Table 2, 30 μM, untreated cells 0% inhibition

Structure (SMILES)	Glucose transport inhibition (%) (H1299 cells; [2])	Cell growth inhibition (%) (H1299 lung cancer cells; Table 2, 30 μM, 48 h)	Glucose transport inhibition (%) (H1299 cells; Table 12)	also measured
O=C(Oc1ccc(Cl)cc1OC(=O)c1cc(O)c(O)c(O)c1)c1cc(O)c(O)c(O)c1 [Compound 1b]	84.4 ± 0.1			
O=C(Oc1cccc(F)c1OC(=O)c1cc(O)c(O)c(O)c1)c1cc(O)c(O)c(O)c1 [Compound 1c]	81.1 ± 1.1			% inhibition of basal glucose transport (H1299 cells): 81.0 ± 1.1%
O=C(Oc1ccccc1OC(=O)c1cc(O)c(O)c(O)c1)c1cc(O)c(O)c(O)c1 [Compound 1d]	32.1 ± 6.2			level of glucose transport inhibition (in words) (H1299 cells; 30 μM): lower levels of inhibition relative to 1a and 2a
COc1cccc(OC(=O)c2cc(O)cc(O)c2)c1OC(=O)c1cc(O)cc(O)c1 [Compound 1e]	69.4 ± 3.0			level of glucose transport inhibition (in words) (H1299 cells; 30 μM): little to no inhibition
O=C(Oc1ccc(Cl)cc1OC(=O)c1cc(O)cc(O)c1)c1cc(O)cc(O)c1 [Compound 1f]	95.2 ± 0.2	38.8 ± 6.9		% inhibition of basal glucose transport (H1299 cells; listed as WZB-114): 96.1 ± 0.1%
O=C(Oc1cccc(F)c1OC(=O)c1cc(O)cc(O)c1)c1cc(O)cc(O)c1 [Compound 1g]	94.0 ± 0.8	35.0 ± 7.6		% inhibition of basal glucose transport (H1299 cells; listed as WZB-113): 96.7 ± 1.6%
COc1cccc(OC(=O)c2ccc(O)c(O)c2)c1OC(=O)c1ccc(O)c(O)c1 [Compound 1h]	0	32.4 ± 2.7		level of glucose transport inhibition (in words) (H1299 cells; 30 μM): little to no inhibition
O=C(Oc1ccc(Cl)cc1OC(=O)c1ccc(O)c(O)c1)c1ccc(O)c(O)c1 [Compound 1i]	94.4 ± 0.4	45.2 ± 7.6		
O=C(Oc1cccc(F)c1OC(=O)c1ccc(O)c(O)c1)c1ccc(O)c(O)c1 [Compound 1j]	88.7 ± 1.8	41.5 ± 5.5		
COc1cccc(OC(=O)c2ccccc2O)c1OC(=O)c1ccccc1O [Compound 1k]	50.5 ± 7.6	18.0 ± 4.4		
O=C(Oc1ccc(Cl)cc1OC(=O)c1ccccc1O)c1ccccc1O [Compound 1l]	51.6 ± 5.9	26.6 ± 2.3		
O=C(Oc1cccc(F)c1OC(=O)c1ccccc1O)c1ccccc1O [Compound 1m]	51.0 ± 6.6			
COc1cccc(OC(=O)c2ccc(O)cc2)c1OC(=O)c1ccc(O)cc1 [Compound 1n]	86.5 ± 2.8	36.6 ± 6.7		
O=C(Oc1ccc(Cl)cc1OC(=O)c1ccc(O)cc1)c1ccc(O)cc1 [Compound 1o]	79.0 ± 8.7			
O=C(Oc1cccc(F)c1OC(=O)c1ccc(O)cc1)c1ccc(O)cc1 [Compound 1p]	92.6 ± 0.7	35.9 ± 4.7		
O=C(Oc1ccccc1OC(=O)c1ccc(O)cc1)c1ccc(O)cc1 [Compound 1q]	57.5 ± 2.9			
O=C(Oc1cccc(OC(=O)c2cc(O)cc(O)c2)c1OC(=O)c1cc(O)cc(O)c1)c1cc(O)cc(O)c1 [Compound 2b]	98.7 ± 0.8	41.0 ± 5.5		% inhibition of basal glucose transport (H1299 cells; listed as WZB-111): 99.5 ± 0.3%

Structure (SMILES)	Glucose transport inhibition (%) (H1299 cells; [2])	Cell growth inhibition (%) (H1299 lung cancer cells; Table 2, 30 μM, 48 h)	Glucose transport inhibition (%) (H1299 cells; Table 12)	also measured
O=C(Oc1cccc(OC(=O)c2ccc(O)c(O)c2)c1OC(=O)c1ccc(O)c(O)c1)c1ccc(O)c(O)c1 [Compound 2c]	94.7 ± 0.4	42.2 ± 6.1		
O=C(Oc1cccc(OC(=O)c2ccccc2O)c1OC(=O)c1ccccc1O)c1ccccc1O [Compound 2d]	74.7 ± 2.0			
COc1cc(C(=O)Oc2cccc(OC)c2OC(=O)c2cc(OC)c(OC)c(OC)c2)cc(OC)c1OC [Compound 7a]	33.3 ± 3.6	22.2 ± 3.4		level of glucose transport inhibition (in words) (H1299 cells; 30 μM): dramatically decreased
COc1cc(C(=O)Oc2ccc(Cl)cc2OC(=O)c2cc(OC)c(OC)c(OC)c2)cc(OC)c1OC [Compound 7b]	1.7 ± 1.1	20.6 ± 2.1		level of glucose transport inhibition (in words) (H1299 cells; 30 μM): dramatically decreased
COc1cc(C(=O)Oc2cccc(F)c2OC(=O)c2cc(OC)c(OC)c(OC)c2)cc(OC)c1OC [Compound 7c]	7.9 ± 2.6	19.6 ± 3.6		level of glucose transport inhibition (in words) (H1299 cells; 30 μM, listed as WZB-101): dramatically decreased levels of activity
COc1cccc(C(=O)Oc2cccc(OC)c2OC(=O)c2cccc(OC)c2)c1 [Compound 7d]	32.1 ± 0.2	18.3 ± 4.3		
O=C(Nc1ccc(F)cc1NC(=O)c1cccc(O)c1)c1cccc(O)c1 [WZB-124]			89.7 ± 2.5^b %	Cell growth inhibition (%) (H1299 lung cancer cells; Table 12): 5.7 ± 2.1%
O=C(Nc1ccc(Cl)cc1NC(=O)c1cccc(O)c1)c1cccc(O)c1 [WZB-125]			83.7 ± 0.7%	Cell growth inhibition (%) (H1299 lung cancer cells; Table 12): 5.9 ± 1.4%
COc1cccc(OCc2cccc(O)c2)c1OCc1cccc(O)c1 [WZB-132]			60.0 ± 7.7%	Cell growth inhibition (%) (H1299 lung cancer cells; Table 12): 6.0 ± 2.2%
Oc1cccc(COc2cccc(F)c2OCc2cccc(O)c2)c1 [WZB-134]			92.5±2.2% and 92.6 ± 2.2%	Cell growth inhibition (%) (H1299 lung cancer cells; Table 12): 10.6±2.0%
Oc1cccc(CNc2ccc(Cl)cc2NCc2cccc(O)c2)c1 [WZB-138]			52.2 ± 9.7%	
Oc1cccc(CNc2ccc(F)cc2NCc2cccc(O)c2)c1 [WZB-139]			39.2 ± 0.8%	
Oc1cccc(COc2ccc(Cl)c(OCc3cccc(O)c3)c2)c1 [WZB-141]			96.5±0.5%	Cell growth inhibition (%) (H1299 lung cancer cells; Table 12): 39.5±1.8%; Compound concentration (%) after incubation with serum ([1]; 0 h (arbitrarily assigned 100%)): 100%; Compound concentration (%) after incubation with serum ([1]; 4 h): 103.5%; Compound concentration (%) after incubation with serum ([1]; 24 h): 109.7%; Compound concentration (%) after incubation with serum ([1]; 48 h): 87.4%; relative stability in serum ([1]; ether vs ester bond-containing compounds): much more stable in serum than ester bond-containing compounds WZB-115 and WZB-117; Compound concentration (%) after incubation with serum ([1]; l h): 100.3%
CN(C(=O)c1cccc(O)c1)c1ccc(Cl)cc1N(C)C(=O)c1cccc(O)c1 [WZB-142]			82.7 ± 6.8%	Cell growth inhibition (%) (H1299 lung cancer cells; Table 12): 14.2 ± 9.0%
CN(C(=O)c1cccc(O)c1)c1ccc(F)cc1N(C)C(=O)c1cccc(O)c1 [WZB-143]			85.7 ± 3.6%	Cell growth inhibition (%) (H1299 lung cancer cells; Table 12): 31.1 ± 7.9%
CN(Cc1cccc(O)c1)c1ccc(F)cc1N(C)Cc1cccc(O)c1 [WZB-144]			78.2±1.4%	Cell growth inhibition (%) (H1299 lung cancer cells; Table 12): 14.5±7.6%
CN(Cc1cccc(O)c1)c1ccc(Cl)cc1N(C)Cc1cccc(O)c1 [WZB-145]			73.2 ± 3.8%	Cell growth inhibition (%) (H1299 lung cancer cells; Table 12): 38.2 ± 6.6%
